How the values were obtained:
Assay type in all cases: cell-based
[1] = tested on: HTT mRNA; test: Splicing RT-qPCR assay (THP), Table 2A; details: Table 2A (THP); for AC50: AJ mRNA increase, read-out: HTT AJ (increase in alternative junction mRNA, AC50); for IC50: CJ mRNA decrease, read-out: HTT CJ (decrease in canonical junction mRNA, IC50)
[2] = tested on: SH-SY5Y (human neuroblastoma) cells; test: Cell viability, Cell Titer Glo 2.0 assay; details: read-out: Viability SHSY5Y.3 GI50
Protocol: Compounds described herein were screened for toxicity in K562 (human chronic myelogenous leukemia) and SH-SY5Y (human neuroblastoma) cells using a Cell Titer Glo 2.0 assay.
• Promega CellTiter-Glo® 2.0 Cell Viability Assay (cat #G9241) • Corning 384-well TC-treated microplates (cat #3570)
Cells were plated at 500 cells/well (K562 cells) in 45 μL of IMDM supplemented with 10% FBS in a 384-well opaque plate. Wells containing only medium were used as a blank control. Test compounds (e.g., compounds of Formula (I) or (II) were first serially diluted in DMSO then diluted 1:100 with IMDM+10% FBS. The final concentration of DMSO was 0.1% in each well. The cells were incubated for 72 hours at 37° C. and 5% CO2 before assaying with Cell Titer Glo 2.0 reagent.

[3] = tested on: MYB mRNA; test: Gene panel canonical junction qPCR assay, decrease in CJ mRNA, Table 3; details: decrease in canonical junction (CJ) mRNA, gene panel qPCR, Table 3
Protocol: (§1) Compounds described herein were used to modulate RNA transcript abundance in cells. The expression of a target mRNA was measured by detecting the formation of an exon-exon junction in the canonical transcript (CJ). A compound mediated exon-inclusion event was detected by observing an increase in formation of a new junction with an alternative exon (AJ). Real-time qPCR assays were used to detect these splicing switches and interrogate the potency of various compounds towards different target genes. A high-throughput real time quantitative PCR (RT-qPCR) assay was developed to measure these two isoforms of the mRNA (CJ and AJ) for exemplary genes, such as HTT, SMN2, and MYB, together with a control housekeeping gene, GAPDH or GUSB or PPIA, used for normalization. Briefly, the A673 or K562 cell line was treated with various compounds described herein (e.g., compounds of Formula (I)). After treatment, the levels of the HTT, MYB, or SMN2 mRNA targets were determined from each sample of cell lysate by cDNA synthesis followed by qPCR.
(§2) The A673 cell line was cultured in DMEM with 10% FBS. Cells were diluted with full growth media and plated in a 96-well plate (15,000 cells in 100 ul media per well). The plate was incubated at 37° C. with 5% CO2 for 24 hours to allow cells to adhere. An 11-point 3-fold serial dilution of the compounds was made in DMSO then diluted in media in an intermediate plate. Compounds were transferred from the intermediate plate to the cell plate with the top dose at a final concentration of 10 uM in the well. Final DMSO concentration was kept at or below 0.25%. The cell plate was returned to the incubator at 37° C. with 5% CO2 for an additional 24 hours.
(§3) The K562 cell line was cultured in IMDM with 10% FBS. For K562, cells were diluted with full growth media and plated in either a 96-well plate (50,000 cells in 50 uL media per well) or a 384-well plate (8,000-40,000 cells in 45 uL media per well). An 11-point 3-fold serial dilution of the compounds were made in DMSO then diluted in media in an intermediate plate. Compound was transferred from the intermediate plate to the cell plate with the top dose at a final concentration of 10 uM in the well. Final DMSO concentration was kept at or below 0.25%. Final volume was 100 uL for 96-well plate and 50 uL for 384-well plate. The cell plate was then placed in an incubator at 37° C. with 5% CO2 for 24 hours.
(§4) The data analysis was performed by first determining the ΔCt vs the housekeeper gene. This ΔCt was then normalized against the DMSO control (ΔΔCt) and converted to RQ (relative quantification) using the 2^(−ΔΔCt) equation. The RQ were then converted to a percentage response by arbitrarily setting an assay window of 3.5 and 4.0 ΔCt for HTT-CJ and MYB-CJ respectively and an assay window of 9 and 3 ΔCt for HTT-AJ and MYB-AJ in 96 well format (50,000 K562 cells/well and 15,000 A673 cells per well) and an assay window of 3 and 4 ΔCt for HTT-CJ and MYB-CJ respectively and an assay window of 5 and 3 ΔCt for HTT-AJ and MYB-AJ respectively in 384 well format (8,000 K562 cells/well example). […] The percentage response was then fitted to the 4 parametric logistic equation to evaluate the concentration dependence of compound treatment. The increase in AJ mRNA is reported as AC50 (compound concentration having 50% response in AJ increase) while the decrease in CJ mRNA levels is reported as IC50 (compound concentration having 50% response in CJ decrease).
(§5) Additional studies were carried out for a larger panel of genes using the protocol provided above. The junction between flanking upstream and downstream exons was used to design canonical junction qPCR assays. At least one of the forward primer, reverse primer or the CY5-labeled 5′ nuclease probe (with 3′ quencher such as ZEN/Iowa Black FQ) was designed to overlap with the exon junction to capture the CJ mRNA transcript. […]

[4] = tested on: HTT mRNA; test: as above; details: decrease in canonical junction (CJ) mRNA, gene panel qPCR, Table 3
Protocol: as §1, §2, §3, §4, §5

[5] = tested on: MYB mRNA; test: Splicing RT-qPCR assay (THP), Table 2A; details: Table 2A (THP); for AC50: AJ mRNA increase, read-out: MYB AJ (increase in alternative junction mRNA, AC50); for IC50: CJ mRNA decrease, read-out: MYB CJ (decrease in canonical junction mRNA, IC50)

| SMILES | AC50 [1] [µM] | IC50 [1] [µM] | GI50 [2] [nM] | IC50 [3] [µM] | IC50 [4] [µM] | AC50 [5] [µM] | IC50 [5] [µM] |
| --- | --- | --- | --- | --- | --- | --- | --- |
| Cc1cn2cc(NC(=O)c3ccc(N4CC[C@H]5CNCC[C@H]54)c4cn(C)nc34)nc2c(C)n1 (stereo in doubt) [Compound 502] | 0.1 to 1 | 0.1 to 1 | 100 to 1000 | 0.1 to 1 | 0.1 to 1 | 0.1 to 1 | 0.1 to 1 |
| Cc1cn2cc(NC(=O)c3ncc(N4CCC(NC5CC5)CC4)c4cn(C)nc34)nc2c(C)n1 [Compound 264, 4-[4-(cyclopropylamino)-1-piperidyl]-N-(6,8-dimethylimidazo[1,2-a]pyrazin-2-yl)-2-methyl-pyrazolo[3,4-c]pyridine-7-carboxamide] | > 10 | > 10 | – | – | – | > 10 | > 10 |
| Cc1cn2cc(NC(=O)c3ccc(N4CCNCC4)c4cn(C)nc34)cc(Br)c2n1 [Compound 265, N-(8-bromo-2-methyl-imidazo[1,2-a]-pyridin-6-yl)-2-methyl-4-piperazin-1-yl-indazole-7-carboxamide] | – | – | 1000 to 10000 | – | – | – | – |
| CCNC1CCN(c2cc(F)c(C(=O)Nc3cn4c(N)c(C)nc4c(F)c3OC)c3nn(C)cc23)CC1 [Compound 310, N-(3-amino-8-fluoro-7-methoxy-2-methyl-imidazo[1,2-a]pyridin-6-yl)-4-[4-(ethylamino)-1-piperidyl]-6-fluoro-2-methyl-indazole-7-carboxamide] | > 10 | > 10 | > 10000 | > 10 | > 10 | > 10 | > 10 |
| CCNC1CCN(c2ccc(C(=O)Nc3cn4cc(CC)nc(C)c4n3)c3nn(C)cc23)CC1 [Compound 311, N-(6-ethyl-8-methylimidazo [1,2-a]pyrazin-2-yl)-4-(4-(ethylamino)piperidin-1-yl)-2-methyl-2H-indazole-7-carboxamide 2,2,2-trifluoroacetate] | > 10 | > 10 | > 10000 | > 10 | > 10 | > 10 | > 10 |
| CCNC1CCN(c2ccc(C(=O)Nc3cn4cc(C)nc(C5CC5)c4n3)c3nn(C)cc23)CC1 [Compound 312, N-(8-cyclopropyl-6-methyl-imidazo[1,2-a]pyrazin-2-yl)-4-[4-(ethylamino)-1-piperidyl]-2-methyl-indazole-7-carboxamide] | 1 to 10 | 1 to 10 | 1000 to 10000 | 1 to 10 | 1 to 10 | 1 to 10 | 1 to 10 |
| CCNC1CCN(c2ccc(C(=O)Nc3cc(Oc4ccccc4Cl)c4nc(C)cn4c3)c3nn(C)cc23)CC1 [Compound 313, N-[8-(2-chlorophenoxy)-2-methylimidazo-[1,2-a]pyridin-6-yl]-4-[4-(ethylamino)-1-piperidyl]-2-methyl-indazole-7-carboxamide] | > 10 | > 10 | 1000 to 10000 | > 10 | > 10 | 1 to 10 | > 10 |
| CCNC1CCN(c2ccc(C(=O)Nc3cc(Oc4cccc(Cl)c4)c4nc(C)cn4c3)c3nn(C)cc23)CC1 [Compound 314, N-[8-(3-chlorophenoxy)-2-methylimidazo-[1,2-a]pyridin-6-yl]-4-[4-(ethylamino)-1-piperidyl]-2-methyl-indazole-7-carboxamide] | 1 to 10 | 1 to 10 | 100 to 1000 | 0.1 to 1 | 1 to 10 | < 0.1 | 0.1 to 1 |
| CCNC1CCN(c2ccc(C(=O)Nc3cc(Oc4ccccc4C#N)c4nc(C)cn4c3)c3nn(C)cc23)CC1 [Compound 315, N-[8-(2-cyano-phenoxy)-2-methyl-imidazo[1,2-a]pyridin-6-yl]-4-[4-(ethylamino)-1-piperidyl]-2-methyl-indazole-7-carboxamide] | > 10 | > 10 | 1000 to 10000 | > 10 | > 10 | 1 to 10 | > 10 |
| CCNC1CCN(c2ccc(C(=O)Nc3cc(Oc4ccccc4C)c4nc(C)cn4c3)c3nn(C)cc23)CC1 [Compound 316, 4-[4-(ethylamino)-1-piperidyl]-2-methyl-N-[2-methyl-8-(2-methylphenoxy)imidazo[1,2-a]pyridin-6-yl]indazole-7-carboxamide] | > 10 | > 10 | 1000 to 10000 | 1 to 10 | > 10 | > 10 | 1 to 10 |
| CCNC1CCN(c2ccc(C(=O)Nc3cc(C(N)=O)c4nc(C)cn4c3)c3nn(C)cc23)CC1 [Compound 317, N-(8-carbamoyl-2-methylimidazo[1,2-a]pyridin-6-yl)-4-(4-(ethylamino)piperidin-1-yl)-2-methyl-2H-indazole-7-carboxamide 2,2,2-trifluoroacetate] | > 10 | > 10 | > 10000 | > 10 | > 10 | > 10 | > 10 |
| CCNC1CCN(c2ccc(C(=O)Nc3cc(C(=O)O)c4nc(C)cn4c3)c3nn(C)cc23)CC1 [Compound 318, 6-[[4-[4-(ethylamino)-1-piperidyl]-2-methyl-indazole-7-carbonyl]amino]-2-methyl-imidazo[1,2-a]pyridine-8-carboxylic acid 2,2,2-trifluoroacetic acid] | > 10 | > 10 | > 10000 | > 10 | > 10 | > 10 | > 10 |
| CCNC1CCN(c2ccc(C(=O)Nc3cc(C(=O)NC)c4nc(C)cn4c3)c3nn(C)cc23)CC1 [Compound 319, 4-(4-(ethylamino)-piperidin-1-yl)-2-methyl-N-(2-methyl-8-(methylcarbamoyl)-imidazo[1,2-a]-pyridin-6-yl)-2H-indazole-7-carboxamide 2,2,2-trifluoroacetate] | > 10 | > 10 | > 10000 | > 10 | > 10 | > 10 | > 10 |
| COc1c(NC(=O)c2c(F)cc(N3CCC(NC4CC4)CC3)c3cn(C)nc23)cn2cc(C)nc2c1C#N [Compound 320, N-(8-cyano-7-methoxy-2-methyl-imidazo[1,2-a]pyridin-6-yl)-4-[4-(cyclopropylamino)-1-piperidyl]-6-fluoro-2-methyl-indazole-7-carboxamide] | 0.1 to 1 | 0.1 to 1 | 100 to 1000 | 0.1 to 1 | 0.1 to 1 | 0.1 to 1 | 0.1 to 1 |

Source: patent publication US20260285853A1, “COMPOUNDS AND METHODS FOR MODULATING SPLICING” (REMIX THERAPEUTICS INC., priority 2023, published 2026)
